Active and inactive are the calls of the source. The rule behind the calls is not given here.
Legend:
[1] = test system: Leishmania amazonensis; assay: Antileishmanial activity against GFP-expressing Leishmania amazonensis MHOM/BR/75/Josefa intracellular amastigotes infected in murine peritoneal macrophages incubated for 72 hrs by spectrofluorimetry analysis; format: functional, organism-based
[2] = test system: Leishmania amazonensis; assay: Antileishmanial activity against wild type Leishmania amazonensis IFLA/BR/67/PH8 promastigotes assessed as parasite viability incubated for 72 hrs by MTT assay; format: functional, organism-based; conditions: IFLA/BR/67/PH8, 72 h
[3] = Cytotoxicity against sodium thioglycolate-stimulated BALB/c mouse peritoneal macrophages measured after 72 hrs; format: cell-based, Peritoneal macrophage
[4] = Selectivity index, ratio of CC50 for BALB/c mouse peritoneal macrophages to IC50 for GFP-expressing Leishmania amazonensis MHOM/BR/75/Josefa intracellular amastigotes infected in murine peritoneal macrophages; format: toxicity, cell-based; conditions: read-out: Ratio CC50/IC50
[5] = test system: Leishmania amazonensis; assay: Induction of change in plasma membrane integrity in wild type Leishmania amazonensis IFLA/BR/67/PH8 promastigotes assessed as increase in fluorescence intensity at 48.56 uM measured after 24 hrs by propidium iodide staining based spectrofluorimetry analysis relative to control; format: functional
[6] = test system: Leishmania amazonensis; assay: Induction of ROS generation in wild type Leishmania amazonensis IFLA/BR/67/PH8 promastigotes assessed as increase in ROS level by measuring fluorescence intensity at 24.28 uM measured after 24 hrs by H2DCFDA probe based fluorimetry analysis relative to control; format: functional
[7] = test system: Leishmania amazonensis; assay: Induction of mitochondrial membrane depolarization in wild type Leishmania amazonensis IFLA/BR/67/PH8 promastigotes assessed as reduction in ratio of […] at 48.56 uM measured after 72 hrs by JC-1 probe based spectrofluorimetry analysis relative to control; format: functional; design: scale not given: the % may be the effect or the level left
[8] = test system: Leishmania amazonensis; assay: Induction of ROS generation in wild type Leishmania amazonensis IFLA/BR/67/PH8 promastigotes assessed as increase in ROS level by measuring fluorescence intensity at 48.56 uM measured after 24 hrs by H2DCFDA probe based fluorimetry analysis relative to control; format: functional
[9] = test system: Leishmania amazonensis; assay: Induction of mitochondrial membrane depolarization in wild type Leishmania amazonensis IFLA/BR/67/PH8 promastigotes assessed as reduction in fluorescence intensity at 24.28 uM measured after 72 hrs by Mitotracker red staining based spectrofluorimetry analysis relative to control; format: functional; design: scale not given: the % may be the effect or the level left
[10] = test system: Leishmania amazonensis; assay: Induction of mitochondrial membrane depolarization in wild type Leishmania amazonensis IFLA/BR/67/PH8 promastigotes assessed as reduction in fluorescence intensity at 48.56 uM measured after 72 hrs by Mitotracker red staining based spectrofluorimetry analysis relative to control; format: functional; design: scale not given: the % may be the effect or the level left
[11] = test system: Leishmania amazonensis; assay: Induction of change in plasma membrane integrity in wild type Leishmania amazonensis IFLA/BR/67/PH8 promastigotes assessed as increase in fluorescence intensity at 24.28 uM measured after 24 hrs by propidium iodide staining based spectrofluorimetry analysis relative to control; format: functional
[12] = test system: Leishmania amazonensis; assay: Induction of mitochondrial membrane depolarization in wild type Leishmania amazonensis IFLA/BR/67/PH8 promastigotes assessed as reduction in ratio of […] at 24.28 uM measured after 72 hrs by JC-1 probe based spectrofluorimetry analysis relative to control; format: functional; design: scale not given: the % may be the effect or the level left
[13] = test system: Leishmania amazonensis; assay: Induction of mitochondrial membrane depolarization in wild type Leishmania amazonensis IFLA/BR/67/PH8 promastigotes assessed as reduction in ratio of […] at 19.32 uM measured after 72 hrs by JC-1 based spectrofluorimetry analysis relative to control; format: functional; design: scale not given: the % may be the effect or the level left
[14] = test system: Leishmania amazonensis; assay: Induction of ROS generation in wild type Leishmania amazonensis IFLA/BR/67/PH8 promastigotes assessed as increase in ROS level by measuring fluorescence intensity at 19.32 uM measured after 24 hrs by H2DCFDA probe based fluorimetry analysis relative to control; format: functional
[15] = test system: Leishmania amazonensis; assay: Effect on plasma membrane integrity in wild type Leishmania amazonensis IFLA/BR/67/PH8 promastigotes assessed as increase in fluorescence intensity at 9.66 to 19.32 uM measured after 24 hrs by propidium iodide staining based spectrofluorimetry analysis; format: functional, organism-based
[16] = test system: Leishmania amazonensis; assay: Induction of mitochondrial membrane depolarization in wild type Leishmania amazonensis IFLA/BR/67/PH8 promastigotes assessed as reduction in fluorescence intensity at 19.32 uM measured after 72 hrs by Mitotracker red staining based spectrofluorimetry analysis relative to control; format: functional; design: scale not given: the % may be the effect or the level left
[17] = test system: Leishmania amazonensis; assay: Induction of ROS generation in wild type Leishmania amazonensis IFLA/BR/67/PH8 promastigotes assessed as increase in ROS level by measuring fluorescence intensity at 9.66 uM measured after 24 hrs by H2DCFDA probe based fluorimetry analysis relative to control; format: functional

IC50 [1] | Compound | IC50 [2] | CC50 at 72 h [3] | selectivity ratio [4] | further results
57.9 µM | Oc1ccccc1/C=N/Nc1ncccn1 | 28.1 µM | 84.2 µM | 1.45 | 
14.5 µM | Oc1cccc(/C=N/Nc2ncccn2)c1O | 7.95 µM | > 150 µM | > 10.3 | 
10.8 µM | O=C(N/N=C/c1ccc([N+](=O)[O-])o1)c1ncccn1 | 24.3 µM | 29.1 µM | 2.68 | Activity [5]: 143%; Activity [6]: 47.66%; Activity [7]: 49.75%; Activity [8]: 74.11%; Activity [9]: 54.94%; Activity [10]: 55.48%; Activity [11]: 82.9%; Activity [12]: 36%
> 100 µM | O=C(N/N=C/c1ccccn1)c1ncccn1 | > 100 µM | > 150 µM | > 1.5 | 
52.1 µM | Cc1ccc(/C=N/Nc2ncccn2)c(O)c1 | 56 µM | 54.8 µM | 1.05 | 
4.05 µM | CCCCCCCCCCCCCCCCOP(=O)([O-])OCC[N+](C)(C)C [MILTEFOSINE] |  | 132 µM | 32.6 | 
73.9 µM | O=C(N/N=C/c1cc(O)ccc1O)c1ncccn1 | 39.3 µM | > 150 µM | > 2.03 | 
69.1 µM | O=C(N/N=C/c1cc([N+](=O)[O-])ccc1O)c1ncccn1 | 29 µM | 63.4 µM | 0.91 | 
45.7 µM | Oc1ccc(O)c(/C=N/Nc2ncccn2)c1 | 27.5 µM | 89.4 µM | 1.95 | 
10.1 µM | O=[N+]([O-])c1ccc(O)c(/C=N/Nc2ncccn2)c1 | 10.5 µM | 23.8 µM | 2.36 | 
33.9 µM | O=C(N/N=C/c1cccc(O)c1O)c1ncccn1 | 27.4 µM | > 150 µM | > 4.42 | 
35.8 µM | Cc1ccc(/C=N/NC(=O)c2ncccn2)c(O)c1 | 52 µM | > 150 µM | > 4.19 | 
> 100 µM | O=C(N/N=C/c1ccccc1O)c1ncccn1 | 90 µM | > 150 µM | > 1.5 | 
> 100 µM | O=C(N/N=C/c1ccc(O)cc1O)c1ncccn1 | > 100 µM | > 150 µM | > 1.5 | 
8.41 µM | O=C(N/N=C/c1ccc([N+](=O)[O-])s1)c1ncccn1 | > 100 µM | > 150 µM | > 17.8 | 
4.07 µM | C(=N\Nc1ncccn1)/c1ccccn1 | 9.66 µM | 24.6 µM | 6.04 | Activity [13]: 10.97%; Activity [14]: 88.13%; Activity [15]: inactive; Activity [16]: 30.27%; Activity [17]: 111.1%
